Measured values from ChEMBL document CHEMBL1201862, “PubChem BioAssay data set” (2004).
The source made the active and inactive calls.

Tests used:
INS1 = test: INS-1E survival protection against cytokine death – cell-based, luminescence, retest, dose response (AID 449756); format: functional; details: Rattus norvegicus;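 note: cell death triggered by IL-1 beta plus TNF-alpha plus IFN-gamma mixture; protective hits raise ATP signal compared with cytokine alone wells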
[1] = Trypanosoma cruzi growth suppression in host cells – NIH3T3 host cells, beta-gal luminescence, confirmation (AID 2044); format: functional, cell-based;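 note: intracellular parasites grown in NIH/3T3 mouse fibroblasts as host cells; luminescent beta-galactosidase reporter signal from transgenic T. cruzi replicating inside host cells; inhibitors lower the luminescence signal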
Protein RecA = target: T1, Protein RecA (Mycobacterium tuberculosis, UniProt P9WHJ3); test: Fluorescence Cell-Free Homogeneous Dose Retest to Identify Inhibitors of RecA-Intein Splicing Activity. [Related pubchem assays (depositor defined):AID2097, AID2223, AID489010, AID492950]; format: functional
T1 sequence (P9WHJ3 whole entry): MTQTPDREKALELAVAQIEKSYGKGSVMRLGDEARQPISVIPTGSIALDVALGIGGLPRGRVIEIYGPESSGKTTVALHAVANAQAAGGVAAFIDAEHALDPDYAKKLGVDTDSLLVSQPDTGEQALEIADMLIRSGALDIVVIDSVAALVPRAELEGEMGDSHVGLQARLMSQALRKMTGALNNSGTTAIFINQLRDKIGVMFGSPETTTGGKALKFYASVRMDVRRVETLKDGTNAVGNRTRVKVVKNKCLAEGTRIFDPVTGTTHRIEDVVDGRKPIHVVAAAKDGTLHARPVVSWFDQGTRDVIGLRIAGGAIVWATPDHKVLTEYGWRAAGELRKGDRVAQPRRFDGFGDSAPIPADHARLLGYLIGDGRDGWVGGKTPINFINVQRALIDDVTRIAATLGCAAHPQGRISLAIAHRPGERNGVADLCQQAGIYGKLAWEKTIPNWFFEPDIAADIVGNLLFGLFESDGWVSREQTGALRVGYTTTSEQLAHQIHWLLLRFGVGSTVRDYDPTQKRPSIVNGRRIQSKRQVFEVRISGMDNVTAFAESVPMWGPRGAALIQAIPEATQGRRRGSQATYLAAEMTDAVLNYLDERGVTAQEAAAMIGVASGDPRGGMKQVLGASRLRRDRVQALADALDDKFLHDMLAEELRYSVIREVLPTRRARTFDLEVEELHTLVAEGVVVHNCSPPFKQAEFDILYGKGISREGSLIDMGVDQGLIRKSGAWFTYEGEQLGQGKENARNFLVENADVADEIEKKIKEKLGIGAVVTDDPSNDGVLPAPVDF

[2] = target: T2, Oxysterols receptor LXR-beta (Homo sapiens, UniProt P55055); format: functional, cell-based;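 note: Cell-based luminescence dose-response assay of agonist activity at LXR, run as a confirmatory counterscreen to a daf-12 agonist screen; HEK293 cells with Gal4-LXR fusion and GAL4-driven luciferase reporter; agonist potency from rising luciferase signal of a Gal4-LXR reporter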
T2 sequence (P55055 whole entry): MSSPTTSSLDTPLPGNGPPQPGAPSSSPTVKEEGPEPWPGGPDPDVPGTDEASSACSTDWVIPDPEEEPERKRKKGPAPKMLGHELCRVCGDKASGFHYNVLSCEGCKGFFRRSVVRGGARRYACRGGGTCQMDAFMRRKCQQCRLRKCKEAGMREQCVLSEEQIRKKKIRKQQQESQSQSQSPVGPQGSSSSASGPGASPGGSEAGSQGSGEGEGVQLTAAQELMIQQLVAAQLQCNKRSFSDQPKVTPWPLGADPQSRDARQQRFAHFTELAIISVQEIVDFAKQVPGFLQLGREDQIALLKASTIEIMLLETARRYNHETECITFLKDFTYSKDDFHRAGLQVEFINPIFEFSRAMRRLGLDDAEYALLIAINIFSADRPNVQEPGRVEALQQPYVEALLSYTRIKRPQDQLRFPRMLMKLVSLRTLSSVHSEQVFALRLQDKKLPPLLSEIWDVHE

[3] = target: T3, Sentrin-specific protease 7 (Homo sapiens, UniProt Q9BQF6); format: functional;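 note: Luminescence-based dose-response confirmation of ultra-high-throughput screening hits, measuring inhibition of SENP7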
T3 sequence (Q9BQF6 whole entry): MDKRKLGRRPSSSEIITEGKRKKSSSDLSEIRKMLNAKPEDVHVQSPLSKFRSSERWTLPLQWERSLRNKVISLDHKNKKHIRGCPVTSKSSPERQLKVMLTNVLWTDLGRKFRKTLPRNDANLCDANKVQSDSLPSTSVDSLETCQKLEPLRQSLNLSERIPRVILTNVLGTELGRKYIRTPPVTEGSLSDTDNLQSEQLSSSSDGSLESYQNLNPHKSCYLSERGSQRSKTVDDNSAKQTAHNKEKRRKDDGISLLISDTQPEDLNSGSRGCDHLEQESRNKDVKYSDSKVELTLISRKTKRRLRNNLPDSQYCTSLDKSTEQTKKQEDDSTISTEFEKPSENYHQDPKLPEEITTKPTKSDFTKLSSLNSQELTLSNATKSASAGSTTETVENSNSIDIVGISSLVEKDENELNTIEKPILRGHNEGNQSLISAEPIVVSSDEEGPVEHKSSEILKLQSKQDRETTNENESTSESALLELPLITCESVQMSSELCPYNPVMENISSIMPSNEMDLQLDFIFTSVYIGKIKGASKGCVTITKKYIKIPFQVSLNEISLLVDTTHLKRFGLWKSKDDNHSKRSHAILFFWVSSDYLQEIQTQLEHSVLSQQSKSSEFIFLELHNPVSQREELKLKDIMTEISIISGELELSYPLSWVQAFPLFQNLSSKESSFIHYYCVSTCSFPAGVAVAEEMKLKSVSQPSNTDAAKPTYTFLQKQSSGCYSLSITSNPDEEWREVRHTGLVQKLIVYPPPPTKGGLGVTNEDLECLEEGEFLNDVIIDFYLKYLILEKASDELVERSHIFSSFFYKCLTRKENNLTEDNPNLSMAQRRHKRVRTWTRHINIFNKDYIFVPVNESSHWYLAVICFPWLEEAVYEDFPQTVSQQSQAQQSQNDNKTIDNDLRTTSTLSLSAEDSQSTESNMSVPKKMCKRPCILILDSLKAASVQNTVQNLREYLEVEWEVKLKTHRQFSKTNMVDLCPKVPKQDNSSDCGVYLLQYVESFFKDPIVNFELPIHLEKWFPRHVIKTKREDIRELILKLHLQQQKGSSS

[4] = target: Serine/threonine-protein kinase TBK1 (Homo sapiens, UniProt Q9UHD2); test: Navigating the Kinome. Panel member name: TBK1; format: functional
[5] = target: Mitogen-activated protein kinase 8 (Homo sapiens, UniProt P45983); format: functional;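 note: value comes from one member of a kinome-wide kinase profiling panel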
[6] = target: Macrophage colony-stimulating factor 1 receptor (Homo sapiens, UniProt P07333); format: functional;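 note: value comes from the Navigating the Kinome screening panel, CSF1R member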
[7] = target: Dual specificity tyrosine-phosphorylation-regulated kinase 1A (Homo sapiens, UniProt Q13627); format: functional;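 note: measured against DYRK1A as one member of a broad kinome profiling panel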
[8] = target: Tyrosine-protein kinase JAK3 (Homo sapiens, UniProt P52333); format: functional
[9] = target: Serine/threonine-protein kinase D3 (Homo sapiens, UniProt O94806); format: functional;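 note: determined within a kinase panel screen, with PRKCN as the panel member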
Aurora kinase B = Aurora kinase B (Homo sapiens, UniProt Q96GD4); format: functional
[10] = target: High affinity nerve growth factor receptor (Homo sapiens, UniProt P04629); format: functional;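 note: NTRK1 tested as one member of a kinome-wide profiling panel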
Sequence of High affinity nerve growth factor receptor (P04629 whole entry): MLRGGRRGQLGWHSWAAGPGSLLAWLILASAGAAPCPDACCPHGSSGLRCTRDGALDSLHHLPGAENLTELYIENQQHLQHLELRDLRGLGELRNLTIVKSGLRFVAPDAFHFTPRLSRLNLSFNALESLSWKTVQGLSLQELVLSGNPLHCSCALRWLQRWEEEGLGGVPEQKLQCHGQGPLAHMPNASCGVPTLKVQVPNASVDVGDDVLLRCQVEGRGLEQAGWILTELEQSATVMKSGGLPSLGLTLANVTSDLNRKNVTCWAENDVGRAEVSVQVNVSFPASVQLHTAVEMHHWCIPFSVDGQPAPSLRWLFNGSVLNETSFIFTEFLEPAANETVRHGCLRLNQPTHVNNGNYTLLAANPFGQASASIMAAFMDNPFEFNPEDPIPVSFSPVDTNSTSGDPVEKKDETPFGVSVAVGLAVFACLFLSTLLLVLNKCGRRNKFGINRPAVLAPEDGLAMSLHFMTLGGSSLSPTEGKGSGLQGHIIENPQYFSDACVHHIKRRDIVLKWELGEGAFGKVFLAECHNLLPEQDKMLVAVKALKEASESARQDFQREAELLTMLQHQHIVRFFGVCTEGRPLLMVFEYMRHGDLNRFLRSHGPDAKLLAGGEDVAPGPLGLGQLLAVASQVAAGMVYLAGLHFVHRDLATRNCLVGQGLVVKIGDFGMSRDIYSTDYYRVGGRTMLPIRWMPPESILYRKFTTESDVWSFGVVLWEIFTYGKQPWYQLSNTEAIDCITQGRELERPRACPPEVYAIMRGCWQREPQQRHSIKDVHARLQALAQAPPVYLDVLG

Sequence of Tyrosine-protein kinase JAK3 (P52333 whole entry): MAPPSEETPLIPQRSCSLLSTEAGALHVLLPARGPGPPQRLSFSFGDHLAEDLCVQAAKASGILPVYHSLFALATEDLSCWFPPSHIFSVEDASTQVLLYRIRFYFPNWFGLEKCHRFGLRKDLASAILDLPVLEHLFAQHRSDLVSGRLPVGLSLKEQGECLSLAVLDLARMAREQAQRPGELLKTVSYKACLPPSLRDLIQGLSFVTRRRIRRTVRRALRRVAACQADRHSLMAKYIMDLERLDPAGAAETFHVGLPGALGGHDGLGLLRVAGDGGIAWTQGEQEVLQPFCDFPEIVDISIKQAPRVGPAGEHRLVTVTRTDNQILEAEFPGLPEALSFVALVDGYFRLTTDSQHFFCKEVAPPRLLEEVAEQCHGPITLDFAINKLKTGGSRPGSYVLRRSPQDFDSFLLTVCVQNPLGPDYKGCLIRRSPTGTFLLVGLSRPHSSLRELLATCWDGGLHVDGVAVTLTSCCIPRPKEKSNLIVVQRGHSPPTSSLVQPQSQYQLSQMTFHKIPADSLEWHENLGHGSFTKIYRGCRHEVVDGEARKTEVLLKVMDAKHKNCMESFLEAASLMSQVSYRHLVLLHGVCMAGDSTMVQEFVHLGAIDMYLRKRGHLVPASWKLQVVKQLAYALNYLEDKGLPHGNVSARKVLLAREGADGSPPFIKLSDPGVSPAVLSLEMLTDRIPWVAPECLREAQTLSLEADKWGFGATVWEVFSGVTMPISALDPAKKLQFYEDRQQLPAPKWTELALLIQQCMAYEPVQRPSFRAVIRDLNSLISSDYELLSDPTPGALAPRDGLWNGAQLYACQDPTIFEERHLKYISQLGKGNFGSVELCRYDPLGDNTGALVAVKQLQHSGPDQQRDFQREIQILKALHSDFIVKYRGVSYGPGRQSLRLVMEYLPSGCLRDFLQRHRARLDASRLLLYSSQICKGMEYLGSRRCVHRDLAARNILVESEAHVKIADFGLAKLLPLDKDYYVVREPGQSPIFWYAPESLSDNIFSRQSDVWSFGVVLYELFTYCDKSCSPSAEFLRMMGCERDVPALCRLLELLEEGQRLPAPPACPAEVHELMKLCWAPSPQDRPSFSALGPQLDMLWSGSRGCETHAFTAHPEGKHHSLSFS
Sequence of Aurora kinase B (Q96GD4 whole entry): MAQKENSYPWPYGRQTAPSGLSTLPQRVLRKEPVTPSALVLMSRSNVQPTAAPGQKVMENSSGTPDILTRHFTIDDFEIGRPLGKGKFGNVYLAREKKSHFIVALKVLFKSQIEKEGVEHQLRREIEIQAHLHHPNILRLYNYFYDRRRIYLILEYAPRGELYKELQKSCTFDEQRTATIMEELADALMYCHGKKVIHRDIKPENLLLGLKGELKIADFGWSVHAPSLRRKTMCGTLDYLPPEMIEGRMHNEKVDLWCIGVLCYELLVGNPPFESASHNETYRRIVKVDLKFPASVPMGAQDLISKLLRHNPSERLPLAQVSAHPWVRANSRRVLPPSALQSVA
Sequence of Serine/threonine-protein kinase TBK1 (Q9UHD2 whole entry): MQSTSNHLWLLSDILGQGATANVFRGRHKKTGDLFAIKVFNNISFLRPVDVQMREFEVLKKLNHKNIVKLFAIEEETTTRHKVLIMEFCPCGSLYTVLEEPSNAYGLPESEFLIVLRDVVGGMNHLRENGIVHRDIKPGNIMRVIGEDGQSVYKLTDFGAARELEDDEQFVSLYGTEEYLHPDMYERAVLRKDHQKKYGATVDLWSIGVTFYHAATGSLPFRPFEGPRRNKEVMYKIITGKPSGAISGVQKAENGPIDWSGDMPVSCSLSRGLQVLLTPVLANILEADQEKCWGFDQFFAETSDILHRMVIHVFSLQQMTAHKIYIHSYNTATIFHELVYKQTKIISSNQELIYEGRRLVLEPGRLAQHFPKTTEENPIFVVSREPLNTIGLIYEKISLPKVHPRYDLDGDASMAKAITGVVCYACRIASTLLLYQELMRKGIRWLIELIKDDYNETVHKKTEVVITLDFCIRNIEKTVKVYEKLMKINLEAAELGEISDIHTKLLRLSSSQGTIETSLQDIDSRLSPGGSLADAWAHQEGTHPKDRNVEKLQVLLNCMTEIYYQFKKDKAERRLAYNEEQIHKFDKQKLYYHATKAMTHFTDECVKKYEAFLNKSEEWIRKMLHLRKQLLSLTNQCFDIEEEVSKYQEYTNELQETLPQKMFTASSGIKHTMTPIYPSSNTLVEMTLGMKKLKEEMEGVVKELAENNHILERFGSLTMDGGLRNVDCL
Sequence of Macrophage colony-stimulating factor 1 receptor (P07333 whole entry): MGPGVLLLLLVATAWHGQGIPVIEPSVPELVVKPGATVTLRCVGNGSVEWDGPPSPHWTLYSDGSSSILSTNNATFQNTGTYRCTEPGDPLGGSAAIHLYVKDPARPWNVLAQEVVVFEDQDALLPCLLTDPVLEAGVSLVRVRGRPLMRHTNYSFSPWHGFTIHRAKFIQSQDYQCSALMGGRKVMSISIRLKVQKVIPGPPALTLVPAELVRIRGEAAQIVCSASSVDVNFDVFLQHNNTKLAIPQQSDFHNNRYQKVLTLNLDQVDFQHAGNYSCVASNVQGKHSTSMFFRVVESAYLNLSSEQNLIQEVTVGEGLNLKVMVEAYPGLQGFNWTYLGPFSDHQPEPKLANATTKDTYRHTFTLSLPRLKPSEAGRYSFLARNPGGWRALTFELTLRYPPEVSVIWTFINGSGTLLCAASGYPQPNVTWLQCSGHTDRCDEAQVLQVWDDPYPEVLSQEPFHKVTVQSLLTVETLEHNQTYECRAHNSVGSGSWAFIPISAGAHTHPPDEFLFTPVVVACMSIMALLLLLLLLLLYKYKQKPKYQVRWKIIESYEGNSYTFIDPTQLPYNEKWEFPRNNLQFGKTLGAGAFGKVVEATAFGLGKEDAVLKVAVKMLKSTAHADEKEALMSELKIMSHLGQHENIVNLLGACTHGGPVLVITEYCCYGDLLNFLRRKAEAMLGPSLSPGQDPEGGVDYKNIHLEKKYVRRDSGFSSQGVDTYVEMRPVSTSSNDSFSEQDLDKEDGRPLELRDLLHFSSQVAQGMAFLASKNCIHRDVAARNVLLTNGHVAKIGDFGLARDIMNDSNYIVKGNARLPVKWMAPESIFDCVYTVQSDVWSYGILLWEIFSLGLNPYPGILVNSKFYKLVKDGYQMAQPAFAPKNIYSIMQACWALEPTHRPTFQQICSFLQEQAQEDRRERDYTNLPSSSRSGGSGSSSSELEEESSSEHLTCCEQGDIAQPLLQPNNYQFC
Sequence of Serine/threonine-protein kinase D3 (O94806 whole entry): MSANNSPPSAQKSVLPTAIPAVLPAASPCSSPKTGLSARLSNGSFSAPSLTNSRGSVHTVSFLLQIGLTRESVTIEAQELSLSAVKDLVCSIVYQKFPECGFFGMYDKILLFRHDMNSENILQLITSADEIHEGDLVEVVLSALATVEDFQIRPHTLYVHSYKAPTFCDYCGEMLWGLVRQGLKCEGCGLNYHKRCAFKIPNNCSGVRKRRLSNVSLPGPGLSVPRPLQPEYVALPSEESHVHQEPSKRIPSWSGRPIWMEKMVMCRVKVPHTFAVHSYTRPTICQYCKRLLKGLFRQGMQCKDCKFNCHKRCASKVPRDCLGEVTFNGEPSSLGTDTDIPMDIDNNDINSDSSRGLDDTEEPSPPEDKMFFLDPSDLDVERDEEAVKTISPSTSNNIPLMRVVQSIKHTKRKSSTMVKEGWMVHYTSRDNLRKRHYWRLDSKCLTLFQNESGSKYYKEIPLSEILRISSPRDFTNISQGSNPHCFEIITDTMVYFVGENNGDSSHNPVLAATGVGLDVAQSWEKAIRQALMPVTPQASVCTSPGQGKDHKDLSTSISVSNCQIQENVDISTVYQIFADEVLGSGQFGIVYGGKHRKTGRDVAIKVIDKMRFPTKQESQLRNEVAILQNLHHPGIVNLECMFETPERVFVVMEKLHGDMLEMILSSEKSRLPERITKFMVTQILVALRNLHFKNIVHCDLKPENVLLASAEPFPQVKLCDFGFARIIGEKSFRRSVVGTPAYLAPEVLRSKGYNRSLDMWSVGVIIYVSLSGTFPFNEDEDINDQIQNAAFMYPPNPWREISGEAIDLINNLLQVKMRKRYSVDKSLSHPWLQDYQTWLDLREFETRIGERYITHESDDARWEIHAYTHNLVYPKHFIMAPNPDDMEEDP

Compound: CN1CCN(C(c2ccc(C(F)(F)F)cc2)c2cc(Cl)c3cccnc3c2O)CC1 (stereo not drawn)
- AC50 (INS1): 3.18 µM (active)
- EC50 [1]: 1.32 µM (active)
- EC50 (Protein RecA): 0.932 µM (active)

Compound: NC(=O)c1c(NC(=O)c2cc3ccccc3o2)sc2c1CCC2
- EC50 [2]: > 67.5 µM (inactive)
- IC50 [3]: 3.74 µM (active)

Compound: O=C(NC(CCO)c1ccccc1)c1ccc(-c2ccncc2)cc1 (stereo not drawn)
- Ki [4]: > 3.16 µM (inactive)
- Ki [5]: > 5.01 µM (inactive)
- Ki [6]: > 2.51 µM (inactive)
- Ki [7]: > 2 µM (inactive)
- Ki [8]: > 5.01 µM (inactive)
- Ki [9]: > 3.98 µM (inactive)
- Ki (Aurora kinase B): > 3.98 µM (inactive)
- Ki [10]: > 3.16 µM (inactive)
